Source: patent US20260102501A1, “ANTI-CANCER NUCLEAR HORMONE RECEPTOR-TARGETING COMPOUNDS” (Nuvation Bio Inc., priority 2022, published 2026)
Substitutions are numbered along the chain they refer to. Like-named read-outs stand apart in the source and are kept apart here.

Legend:
[1] = target: T1, AR (cytosol from LnCaP cells) (Homo sapiens, UniProt P10275, T878A); assay: AR binding assay (3H-R1881 displacement)
T1 sequence (P10275 1-920 T878A): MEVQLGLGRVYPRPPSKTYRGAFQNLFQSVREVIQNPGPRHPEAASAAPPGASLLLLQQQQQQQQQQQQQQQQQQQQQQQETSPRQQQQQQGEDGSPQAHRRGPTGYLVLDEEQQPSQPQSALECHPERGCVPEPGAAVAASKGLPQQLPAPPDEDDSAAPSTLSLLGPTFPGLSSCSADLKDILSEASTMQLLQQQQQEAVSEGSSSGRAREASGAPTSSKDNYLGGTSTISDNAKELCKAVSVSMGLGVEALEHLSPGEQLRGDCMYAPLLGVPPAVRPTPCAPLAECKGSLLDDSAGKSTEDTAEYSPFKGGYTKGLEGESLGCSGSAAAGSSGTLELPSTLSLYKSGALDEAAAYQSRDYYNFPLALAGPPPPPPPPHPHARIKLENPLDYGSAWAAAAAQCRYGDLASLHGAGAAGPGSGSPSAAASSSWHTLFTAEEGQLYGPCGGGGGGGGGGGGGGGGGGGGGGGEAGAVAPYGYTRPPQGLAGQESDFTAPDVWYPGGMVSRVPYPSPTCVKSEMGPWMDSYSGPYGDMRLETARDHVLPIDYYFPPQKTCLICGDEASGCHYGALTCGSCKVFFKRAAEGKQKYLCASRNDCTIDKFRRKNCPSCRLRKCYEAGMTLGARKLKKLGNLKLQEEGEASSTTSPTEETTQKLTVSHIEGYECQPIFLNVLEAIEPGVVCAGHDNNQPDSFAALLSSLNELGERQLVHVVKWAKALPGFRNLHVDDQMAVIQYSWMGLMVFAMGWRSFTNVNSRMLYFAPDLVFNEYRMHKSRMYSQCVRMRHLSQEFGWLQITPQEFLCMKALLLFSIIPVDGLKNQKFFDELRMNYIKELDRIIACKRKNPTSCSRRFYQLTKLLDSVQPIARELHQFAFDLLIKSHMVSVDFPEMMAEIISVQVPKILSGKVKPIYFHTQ
Description: The plate was then centrifuged at 3000 rpm for 30 minutes at 4° C.

[2] = target: T2, Progesterone PR-B receptors from human breast carcinoma T47D cells (Homo sapiens, UniProt P06401); assay: PR binding assay ([3H] Progesterone displacement)
T2 sequence (P06401 1-933): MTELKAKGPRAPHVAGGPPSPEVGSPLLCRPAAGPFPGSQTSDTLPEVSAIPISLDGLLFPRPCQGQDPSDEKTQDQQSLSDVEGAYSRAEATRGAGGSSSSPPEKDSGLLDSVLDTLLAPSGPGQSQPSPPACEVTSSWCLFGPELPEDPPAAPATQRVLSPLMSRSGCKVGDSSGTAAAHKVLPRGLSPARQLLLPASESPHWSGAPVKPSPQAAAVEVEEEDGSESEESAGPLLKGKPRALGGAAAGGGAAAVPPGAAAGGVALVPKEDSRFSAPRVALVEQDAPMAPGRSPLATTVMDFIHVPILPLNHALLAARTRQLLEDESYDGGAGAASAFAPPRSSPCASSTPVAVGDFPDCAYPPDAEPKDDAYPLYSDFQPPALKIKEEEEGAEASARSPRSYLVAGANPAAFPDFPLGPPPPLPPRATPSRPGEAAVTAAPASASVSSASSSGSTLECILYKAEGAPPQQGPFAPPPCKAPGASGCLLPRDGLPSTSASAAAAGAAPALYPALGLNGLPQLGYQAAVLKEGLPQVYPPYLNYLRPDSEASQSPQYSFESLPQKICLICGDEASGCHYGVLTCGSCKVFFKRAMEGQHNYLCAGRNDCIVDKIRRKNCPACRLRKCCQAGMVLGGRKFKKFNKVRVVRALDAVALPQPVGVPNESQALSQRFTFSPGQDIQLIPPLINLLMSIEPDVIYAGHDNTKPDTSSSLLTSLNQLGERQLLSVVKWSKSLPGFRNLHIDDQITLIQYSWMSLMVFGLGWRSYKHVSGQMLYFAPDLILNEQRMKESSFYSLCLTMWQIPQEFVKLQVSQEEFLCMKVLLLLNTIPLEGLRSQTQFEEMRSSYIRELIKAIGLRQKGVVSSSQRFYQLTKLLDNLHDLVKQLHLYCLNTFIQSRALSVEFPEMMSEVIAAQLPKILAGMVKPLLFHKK

IEC6 cells = assay: Cell viability assay (CellTiterGlo); conditions: Rattus norvegicus, IEC-6, 144 h, read-out: IEC-6 (IC50, nM)
[3] = target: T3, full-length androgen receptor (HEK293 cells stably expressing) (Homo sapiens, UniProt P10275); assay: AR antagonism assay (luciferase reporter)
T3 sequence (P10275 1-920): T1 sequence (P10275 1-920 T878A) with A878T
Description: AR antagonism assay: To evaluate AR antagonist activity, test compound was added to the assay plate (top dose 10 μM, 3 fold serial dilution, 10 point dose response). HEK293 cells stably expressing the full-length androgen receptor were seeded at a density of 20000 cells/well in the assay plate. The assay plate was then incubated at room temperature for 10 minutes and at 37° C. 5% CO2 for 20 minutes. Testosterone was added to the assay plate at 1 nM final concentration and the assay plate incubated at 37° C., 5% CO2 for 20 h. […] Steady-glo was added to the assay plate and mixed at room temperature for 20 minutes on an orbital shaker, before reading out on the En Vision plate reader.

22Rv1 cells = assay: Cell viability assay (CellTiterGlo); conditions: Homo sapiens, 22Rv1, 144 h, read-out: 22RV1 (IC50, nM)
LNCap cells = assay: Cell viability assay (CellTiterGlo); type: cell-based; conditions: Homo sapiens, 144 h
[4] = target: T4, ligand binding domain of the glucocorticoid receptor (HEK293 cells stably expressing) (Homo sapiens, UniProt P04150); assay: GR antagonism assay (luciferase reporter)
T4 sequence (P04150 524-758 limits assumed): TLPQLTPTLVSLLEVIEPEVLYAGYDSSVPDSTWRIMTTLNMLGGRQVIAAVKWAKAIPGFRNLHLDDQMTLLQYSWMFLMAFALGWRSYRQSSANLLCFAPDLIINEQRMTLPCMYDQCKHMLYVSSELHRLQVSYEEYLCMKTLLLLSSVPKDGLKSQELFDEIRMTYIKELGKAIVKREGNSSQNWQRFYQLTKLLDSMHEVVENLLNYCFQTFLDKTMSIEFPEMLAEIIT

T47D cells = assay: Cell viability assay (CellTiterGlo); type: cell-based; conditions: Homo sapiens, 144 h, read-out: T47D (IC50, nM)
[5] = target: T5, GR (cytosol from IM-9 cells) (Homo sapiens, UniProt P04150); assay: GR binding assay (3H-Dexamethasone displacement)
T5 sequence (P04150 1-777): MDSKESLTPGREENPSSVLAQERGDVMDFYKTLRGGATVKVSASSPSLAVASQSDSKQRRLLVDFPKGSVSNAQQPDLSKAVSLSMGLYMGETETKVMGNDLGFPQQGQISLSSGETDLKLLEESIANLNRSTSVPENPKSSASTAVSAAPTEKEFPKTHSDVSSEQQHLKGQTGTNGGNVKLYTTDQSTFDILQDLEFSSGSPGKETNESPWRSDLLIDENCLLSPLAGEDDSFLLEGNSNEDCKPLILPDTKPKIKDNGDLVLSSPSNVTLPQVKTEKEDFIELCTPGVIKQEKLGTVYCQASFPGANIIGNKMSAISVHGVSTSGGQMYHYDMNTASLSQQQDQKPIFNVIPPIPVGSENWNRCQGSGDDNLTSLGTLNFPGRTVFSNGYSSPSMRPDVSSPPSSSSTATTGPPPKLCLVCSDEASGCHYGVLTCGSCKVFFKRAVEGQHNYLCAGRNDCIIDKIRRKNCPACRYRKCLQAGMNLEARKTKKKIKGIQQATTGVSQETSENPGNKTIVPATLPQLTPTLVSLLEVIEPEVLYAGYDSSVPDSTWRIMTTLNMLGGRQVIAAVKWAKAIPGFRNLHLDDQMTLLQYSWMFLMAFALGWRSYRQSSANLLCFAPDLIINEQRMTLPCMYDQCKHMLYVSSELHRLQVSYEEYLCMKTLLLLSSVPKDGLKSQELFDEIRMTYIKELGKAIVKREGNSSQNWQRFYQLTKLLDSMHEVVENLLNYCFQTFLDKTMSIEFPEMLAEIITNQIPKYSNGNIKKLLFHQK

[6] = 6 days incubation, CellTiterGlo, read-out: LNCap (IC50)

Structure (SMILES) | IC50 [1] [nM] | IC50 [2] [nM] | IC50 (IEC6 cells) [nM] | IC50 [3] [nM] | IC50 (22Rv1 cells) [nM] | IC50 (LNCap cells; [6]) [nM] | IC50 [4] [nM] | IC50 (T47D cells) [nM] | IC50 [5] [nM] | IC50 (LNCap cells; read-out: LNCap (IC50, nM)) [nM]
CC[C@@]1(O)C(=O)OCc2c1cc1n(c2=O)Cc2cc3c(CN4CCN(CCCCCCC5CCN(c6ccc(C(=O)N[C@H]7CC[C@H](N(C)c8ccc(C#N)c(Cl)c8)CC7)nn6)CC5)CC4)c(O)ccc3nc2-1 [Compound 56, N-((1r,4r)-4-((3-chloro-4-cyanophenyl)(methyl)amino)cyclohexyl)-6-(4-(6-(4-(((S)-4-ethyl-4,9-dihydroxy-3,14-dioxo-3,4,12,14-tetrahydro-1H-pyrano[3′,4′:6,7]indolizino[1,2-b]quinolin-10-yl)methyl)piperazin-1-yl)hexyl)piperidin-1-yl)pyridazine-3-carboxamide] | 101 to 1000 | 10 to 100 | 101 to 1000 | 101 to 1000 | 10 to 100 | 10 to 100 | – | – | – | –
CC[C@@]1(O)C(=O)OCc2c1cc1n(c2=O)Cc2c-1nc1cc(F)c(C)c3c1c2[C@@H](NC(=O)COC(=O)N1CCN(CCCCCCN(C)c2ccc([C@H]4C[C@@]5(C)[C@@H](CC[C@]5(OC(C)=O)C(C)=O)[C@@H]5CCC6=CC(=O)CCC6=C54)cc2)CC1)CC3 [Compound 42, 2-(((1S,9S)-9-ethyl-5-fluoro-9-hydroxy-4-methyl-10,13-dioxo-2,3,9,10,13,15-hexahydro-1H,12H-benzo[de]pyrano[3′,4′:6,7]indolizino[1,2-b]quinolin-1-yl)amino)-2-oxoethyl 4-(6-((4-((8S,11R,13S,14S,17R)-17-acetoxy-17-acetyl-13-methyl-3-oxo-2,3,6,7,8,11,12,13,14,15,16,17-dodecahydro-1H-cyclopenta[a]phenanthren-11-yl)phenyl)(methyl)amino)hexyl)piperazine-1-carboxylate] | 10 to 100 | < 10 | > 1000 | 101 to 1000 | 101 to 1000 | 101 to 1000 | 10 to 100 | – | – | –
CC#C[C@]1(O)CC[C@H]2[C@@H]3CCC4=CC(=O)CCC4=C3[C@@H](c3ccc(N(C)CCCCCCN4CCN(C(=O)Oc5ccc6nc7c(cc6c5CN(C)C)Cn5c-7cc6c(c5=O)COC(=O)[C@]6(O)CC)CC4)cc3)C[C@@]21C [Compound 29, (S)-10-((Dimethylamino)methyl)-4-ethyl-4-hydroxy-3,14-dioxo-3,4,12,14-tetrahydro-1H-pyrano[3′,4′:6,7]indolizino[1,2-b]quinolin-9-yl 4-(6-((4-((8S,11R,13S,14S,17S)-17-hydroxy-13-methyl-3-oxo-17-(prop-1-yn-1-yl)-2,3,6,7,8,11,12,13,14,15,16,17-dodecahydro-1H-cyclopenta[a]phenanthren-11-yl)phenyl)(methyl)amino)hexyl)piperazine-1-carboxylate] | – | – | 101 to 1000 | – | – | – | < 10 | 10 to 100 | < 10 | 10 to 100
